These results are taken from ChEMBL document CHEMBL1201862, “PubChem BioAssay data set” (2004).

Test systems include KM12; ACHN; A498; LOX IMVI; NCI-H460; SF-268; CCRF-CEM; SF-295; IGROV-1; SNB-75; U-251; K562; T47D; MDA-N; SK-OV-3; UACC-257; HCT-15; OVCAR-4; SNB-19; Hs-578T.
What all share (assay): inhibition of tumour cell growth, NCI panel, 48 h

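Cultured in 96-well plates, cells were exposed to test compound for 48 hours across five concentrations. Abbreviation: GI50, concentration required for 50% inhibition of growth.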 Active and inactive are the calls of the source. Rule as the data show it: active = GI50 up to about 1.1 µM and inactive = higher.

For `FC1=C2C3CCC(C3)C2C1(F)F` (stereo unspecified), the GI50 with KM12, in the experiment on ACHN, in the experiment on A498, in the experiment with LOX IMVI, in the experiment on NCI-H460 and in the experiment with SF-268 was > 100 µM (inactive) each time. In addition, the GI50 was 47.6 µM (inactive) with CCRF-CEM; > 100 µM (inactive) in the experiment with SF-295; > 100 µM (inactive) in the experiment with IGROV-1; > 100 µM (inactive) in the experiment on SNB-75; > 100 µM (inactive) in the experiment on U-251; > 100 µM (inactive) in the experiment on K562. Further, the GI50 was > 100 µM (inactive) in the experiment on T47D; > 100 µM (inactive) in the experiment on MDA-N; > 100 µM (inactive) in the experiment on SK-OV-3; > 100 µM (inactive) in the experiment with UACC-257; over 100 µM with HCT-15; > 100 µM (inactive) in the experiment on OVCAR-4. The GI50 in the experiment on SNB-19 is > 100 µM (inactive).
For `Cc1cc(SCC(=O)c2ccccc2)nc2ccccc12`, the GI50 in the experiment on KM12 was > 100 µM (inactive); with ACHN, > 100 µM (inactive); with Hs-578T it was < 0.01 µM (active); with A498, > 100 µM (inactive); in the experiment on LOX IMVI it was > 100 µM (inactive); with NCI-H460, > 100 µM (inactive). Also, the GI50 is 55.8 µM (inactive) with SF-268; > 100 µM (inactive) with SF-295; > 100 µM (inactive) in the experiment on IGROV-1; 36.7 µM (inactive) with SNB-75; > 100 µM (inactive) with U-251; > 100 µM (inactive) in the experiment with K562. Also, the GI50 in the experiment on T47D was > 100 µM (inactive); in the experiment with UACC-257 it was > 100 µM (inactive); with HCT-15 it was over 100 µM; in the experiment on OVCAR-4, > 100 µM (inactive); in the experiment with SNB-19, > 100 µM (inactive).
Consider `CN(C)c1nc(NN)c2c(-c3ccccc3)c(-c3ccccc3)oc2n1`, for which the GI50 in the experiment with KM12 is > 100 µM (inactive); with ACHN it was > 100 µM (inactive); with Hs-578T it was 45.8 µM (inactive); in the experiment with A498, > 100 µM (inactive); in the experiment on LOX IMVI it was > 100 µM (inactive); with SF-268, 89.1 µM (inactive). Moreover, the GI50 is 52.5 µM (inactive) with CCRF-CEM; > 100 µM (inactive) in the experiment on SF-295; > 100 µM (inactive) with IGROV-1; 96.8 µM (inactive) in the experiment on SNB-75; > 100 µM (inactive) in the experiment with U-251; 49 µM (inactive) with K562. Moreover, the GI50 with T47D is > 100 µM (inactive); in the experiment with SK-OV-3, > 100 µM (inactive); with UACC-257, > 100 µM (inactive); in the experiment with HCT-15, over 100 µM; in the experiment on OVCAR-4, 35.1 µM (inactive); with SNB-19 it was > 100 µM (inactive).
As for `CCN(CCN(CC)C(=O)Nc1ccccc1)C(=O)Nc1ccccc1`, the GI50 in the experiment on ACHN, in the experiment on Hs-578T, in the experiment with A498, with LOX IMVI, in the experiment with NCI-H460 and with SF-268 was > 100 µM (inactive) in each case. In addition, the GI50 with CCRF-CEM, in the experiment on SF-295, in the experiment with IGROV-1, in the experiment with SNB-75, in the experiment on U-251 and in the experiment on K562 was > 100 µM (inactive) each time. For the same compound, the GI50 was > 100 µM (inactive) in the experiment on T47D; > 100 µM (inactive) in the experiment with SK-OV-3; > 100 µM (inactive) in the experiment with UACC-257; over 100 µM with HCT-15; > 100 µM (inactive) in the experiment on SNB-19.
For the compound `[N-]=[N+]=NI1OC(C(F)(F)F)(C(F)(F)F)c2ccccc21`, the GI50 in the experiment with KM12 is 15.6 µM (inactive); in the experiment with ACHN it was 13.9 µM (inactive); with Hs-578T it was 12.6 µM (inactive); in the experiment on A498 it was 17 µM (inactive); in the experiment with LOX IMVI it was 15.2 µM (inactive); with SF-268, 13.6 µM (inactive). Further, the GI50 in the experiment on CCRF-CEM was 7.85 µM (inactive); with SF-295 it was 16 µM (inactive); in the experiment on IGROV-1 it was 16.3 µM (inactive); with SNB-75 it was 13.5 µM (inactive); in the experiment on U-251, 18.1 µM (inactive); in the experiment with K562 it was 11.5 µM (inactive). The GI50 with T47D was 12.1 µM (inactive); in the experiment with SK-OV-3, 21.5 µM (inactive); in the experiment with UACC-257 it was 24.5 µM (inactive); with HCT-15 it was 8.18 µM; in the experiment with OVCAR-4, 15.1 µM (inactive); in the experiment on SNB-19, > 100 µM (inactive).
Regarding `COc1ccc(N2C(=O)CC(=O)N(C(=O)COc3ccc(OCC(=O)N4C(=O)CC(=O)N(c5ccc(OC)cc5)C4=S)cc3)C2=S)cc1`, the GI50 was 15.6 µM (inactive) with KM12; 42.1 µM (inactive) in the experiment with ACHN; 61.7 µM (inactive) in the experiment with A498; 25.7 µM (inactive) in the experiment on NCI-H460; 35.4 µM (inactive) in the experiment on SF-268; 36.8 µM (inactive) in the experiment on SF-295. For the same compound, the GI50 with IGROV-1 was 47.9 µM (inactive); with SNB-75, 54 µM (inactive); in the experiment with U-251 it was 37.1 µM (inactive); with K562, 41.4 µM (inactive); with MDA-N, 37.8 µM (inactive); in the experiment on SK-OV-3, 29.2 µM (inactive). In addition, the GI50 in the experiment on UACC-257 is 43.9 µM (inactive); in the experiment on HCT-15 it was 48.6 µM; with OVCAR-4, 27 µM (inactive); with SNB-19, 40.3 µM (inactive).
As to `CC(C)=C/C=C1/CS(=O)(=O)C=C1C`, the GI50 with KM12, in the experiment on ACHN, with A498, with LOX IMVI, in the experiment on CCRF-CEM and in the experiment with SF-295 was > 100 µM (inactive) throughout. The GI50 with IGROV-1, in the experiment on SNB-75, in the experiment on U-251, in the experiment with K562, in the experiment on T47D and in the experiment with MDA-N was > 100 µM (inactive) throughout. The GI50 is > 100 µM (inactive) in the experiment on SK-OV-3, > 100 µM (inactive) with UACC-257, 47.4 µM in the experiment on HCT-15 and > 100 µM (inactive) in the experiment on SNB-19.
Regarding `COC(=O)[C@]1(c2cc3ccccc3[nH]2)CC2CN(CC(=O)N(C)OC)C1CC2(OC)OC` (stereo partly specified), the GI50 with KM12 is 31.6 µM (inactive); with ACHN, 35.1 µM (inactive); with A498, 39.1 µM (inactive); in the experiment with LOX IMVI it was 37.7 µM (inactive); with NCI-H460, 55.3 µM (inactive); with SF-268, 67.6 µM (inactive). Besides, the GI50 in the experiment on CCRF-CEM was 7.23 µM (inactive); with SF-295, > 100 µM (inactive); in the experiment on IGROV-1, 48.3 µM (inactive); in the experiment on SNB-75, 63.8 µM (inactive); in the experiment on U-251, 16.1 µM (inactive); with K562, 24.9 µM (inactive). For the same compound, the GI50 is 22 µM (inactive) in the experiment with T47D; 33.4 µM (inactive) with MDA-N; > 100 µM (inactive) with SK-OV-3; 71.3 µM (inactive) in the experiment on UACC-257; 28.2 µM with HCT-15; 57.1 µM (inactive) in the experiment on OVCAR-4. For the same compound, in the experiment on SNB-19, the GI50 is > 100 µM (inactive).
For the compound `O=C(O)c1cc2ccccc2c(/N=N/c2ccc(S(=O)(=O)Nc3ncccn3)cc2)c1O`, the GI50 in the experiment on KM12, with ACHN, in the experiment with Hs-578T, in the experiment on NCI-H460, in the experiment with SF-268 and in the experiment with CCRF-CEM was > 100 µM (inactive) each time. The GI50 with SF-295, in the experiment with IGROV-1, in the experiment on SNB-75, in the experiment with U-251, in the experiment with K562 and in the experiment with SK-OV-3 was > 100 µM (inactive) in each case. The GI50 in the experiment on UACC-257 was > 100 µM (inactive); with HCT-15 it was over 100 µM; in the experiment on OVCAR-4, > 100 µM (inactive); in the experiment with SNB-19 it was > 100 µM (inactive).
For `COc1cc(C2c3cc4c(cc3OC(C)(O)C2C)OCO4)cc(OC)c1OC` (stereo unspecified), the GI50 in the experiment with KM12 was 0.697 µM (active); in the experiment with ACHN, 0.938 µM (active); with Hs-578T, 0.449 µM (active); with A498, 13.9 µM (inactive); with LOX IMVI, 0.692 µM (active); with NCI-H460, 0.406 µM (active). Further, the GI50 was 2.69 µM (inactive) in the experiment with SF-268; 0.406 µM (active) in the experiment on CCRF-CEM; 0.304 µM (active) with SF-295; 0.625 µM (active) with IGROV-1; 0.443 µM (active) in the experiment on U-251; 0.274 µM (active) in the experiment on K562. In addition, the GI50 was 0.0555 µM (active) with MDA-N, 65.2 µM (inactive) with UACC-257, 0.4 µM with HCT-15 and 0.342 µM (active) in the experiment with SNB-19.
Take `O=c1oc2cc(O)ccc2cc1-c1nc2ccccc2s1`: the GI50 is 42.3 µM (inactive) in the experiment on KM12; 22.5 µM (inactive) in the experiment on ACHN; 19.6 µM (inactive) in the experiment on A498; 25.9 µM (inactive) in the experiment on LOX IMVI; 21.2 µM (inactive) in the experiment on NCI-H460; 10.4 µM (inactive) in the experiment on CCRF-CEM. Further, the GI50 was 54.1 µM (inactive) with SF-295; 35.4 µM (inactive) with IGROV-1; 23 µM (inactive) in the experiment with U-251; 7.41 µM (inactive) with K562; 31.3 µM (inactive) with T47D; 19.1 µM (inactive) with MDA-N. The GI50 is 38.8 µM (inactive) with SK-OV-3; 22.6 µM (inactive) in the experiment with UACC-257; 20.1 µM in the experiment with HCT-15; 28.2 µM (inactive) in the experiment on OVCAR-4; 30.8 µM (inactive) with SNB-19.
On to `C/C(=C\c1ccccn1)c1ccccn1`, for which the GI50 in the experiment with KM12, in the experiment with ACHN, in the experiment on Hs-578T, in the experiment on A498, in the experiment on NCI-H460 and in the experiment on SF-268 was > 100 µM (inactive) throughout. Besides, the GI50 with SF-295, in the experiment on IGROV-1, in the experiment with SNB-75, with U-251, in the experiment on K562 and in the experiment with MDA-N was > 100 µM (inactive) throughout. Moreover, the GI50 with SK-OV-3 was > 100 µM (inactive); with UACC-257, > 100 µM (inactive); with HCT-15, over 100 µM; in the experiment with OVCAR-4, > 100 µM (inactive); in the experiment with SNB-19, > 100 µM (inactive).
